Measurements taken from patent US20230398125A1, “TREATING HEPATITIS” (Albireo AB, priority 2022, published 2023).
Like-named read-outs stand apart in the source and are kept apart here.

Key:
HBV genotype C = assay: Serum HBeAg in HBV-infected PXB mice; format: in vivo, hepatitis B virus; conditions: 10 mg/kg and 30 mg/kg, Day 14
Procedure: Target volume of blood was collected from all surviving animals under isoflurane anesthesia via the retro-orbital plexus/sinus using Intramedic™ Polyethylene Tubing at each time point. Two microliters (2 μL) from the collected blood were used for human albumin measurements. The remaining blood was centrifuged to separate serum to be used for analyzing the indicated biomarkers. Blood samples were collected according to Table 8.
The individual blood samples of the animals were left at room temperature for at least 5 minutes to coagulate and then centrifuged at 13200×g, 4° C. for 3 minutes to obtain serum. The serum was divided into separate labeled microtubes and stored at −80° C. until analysis.
Serum HBeAg concentration was determined by SRL, Inc. based on a Chemiluminescent Enzyme Immuno Assay (CLEIA) developed by Fujirebio ([…] HBeAg, […]® Prestoll). The dilution factor was 30 and 10, and the measurement range of this assay was between 0.1 and 1590 C.O.I. For the 30-fold diluted samples, the measurement range was adjusted to be between 3 and 47700 C.O.I. And for the 10-fold diluted samples, the measurement range was adjusted to be between 1 and 15900 C.O.I. The lowest quantification limit of this assay was 3.0 C.O.I.

[1] = system: HBV (HepG2 AD38 genotype D); assay: HBV infection of primary human hepatocytes, extracellular HBV DNA by qPCR; format: cell-based, hepatitis B virus; conditions: for EC50: Hepatitis B virus
Human NTCP [2] = biological target: T1, Human NTCP (Homo sapiens, UniProt Q14973); assay: Time course of dissociation (washout), [3H]taurocholate uptake in hNTCP CHO cells; format: cell-based; conditions: 1 μM for 15 min, 6 hours postwashout; read-out: inhibition of human NTCP BA transport activity after washout
T1 construct: expressed in transfected cells; peptide purchased from Pharmaron
T1 sequence (Q14973 1-349): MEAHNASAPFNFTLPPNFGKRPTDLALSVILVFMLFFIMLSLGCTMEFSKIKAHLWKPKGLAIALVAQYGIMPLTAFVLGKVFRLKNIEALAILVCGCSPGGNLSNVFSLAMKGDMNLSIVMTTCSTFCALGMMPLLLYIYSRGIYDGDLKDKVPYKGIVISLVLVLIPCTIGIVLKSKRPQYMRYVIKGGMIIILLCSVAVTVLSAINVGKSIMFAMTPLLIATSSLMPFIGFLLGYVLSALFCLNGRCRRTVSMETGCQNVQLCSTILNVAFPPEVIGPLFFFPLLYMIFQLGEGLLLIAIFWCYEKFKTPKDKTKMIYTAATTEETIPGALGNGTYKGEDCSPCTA
Procedure: This study was performed using a [^3H]taurocholate uptake assay protocol. Stably transfected CHO cells expressing human NTCP (hNTCP) were seeded onto 24 well plates at a density of 1.5-2.0×10^5 cells/well in CHO cell media (DMEM/F12 media supplemented with 10% FBS, Penicillin/Streptomycin) plus Geneticin (G418) to maintain selection in culture. After overnight incubation, the media was replaced, and CHO cells were treated with 10 mM sodium butyrate to induce transporter expression (final concentration=[…]). Twenty-four h later, the media was removed, and cells were washed with warm (37° C.) Hanks balanced salt solution (HBSS) containing sodium (Na+). Cells were then incubated with 1 μM of the test inhibitors or vehicle (DMSO) for 15 min in CHO cell media at 37° C. […]
For the [^3H]taurocholate uptake assay, the media was aspirated at the end of each washout period, and cells were washed three times with warm Hanks balanced salt solution (HBSS) containing sodium (Na+). […] Duplicate 100 μL aliquots of the lysate were transferred to vials with scintillation liquid and counted after neutralization and overnight quenching. Cell-associated protein was measured in duplicate using the BCA protein assay, and cell-associated radioactivity was normalized to protein content.

NTCP-HepG2 cells = assay: MTT cytotoxicity assay; format: cell-based, human; conditions: 1 nM-100 μM, HepG2 cells expressing NTCP
Procedure: The In Vitro Toxicology Assay Kit (Sigma-Aldrich) was used to perform a 3-[4,5-dimethylthiazole-2-yl]-2,5-diphenyltetrazolium bromide (MTT) assay to measure the cytotoxicity of the test item according to the manufacturer's protocol. Briefly, NTCP-HepG2 cells were incubated with 100 μL of the indicated concentrations of the test item solved in Hepatocyte Growth Medium (HGM) over 6 h at 37° C. After 6 h, medium was replaced by inhibitor-free HGM and cells were cultured for additional 24 h. Then medium was removed and 100 μL DMEM containing 0.5 mg/mL MTT was added and cells were incubated for 1 h at 37° C. Finally, the medium was replaced by 100 μL isopropyl alcohol (Sigma-Aldrich) and samples were measured by Glo-Max-Multi Detection System (Promega, Madison, Wis., USA). See also Lowjaga K A A, et al. (2020). Long-term trans-inhibition of the hepatitis B and D virus receptor NTCP by taurolithocholic acid. Am J Physiol Gastrointest Liver Physiol 320(1):G66-G80; and Kirstgen et al. 2021.

Human NTCP [3] = biological target: T1, Human NTCP; assay: [3H]taurocholate uptake in hNTCP-transfected CHO cells, apparent Ki and type of inhibition; format: cell-based
Procedure: Stably hNTCP-transfected CHO cells were seeded onto 24 well plates. After overnight incubation, CHO cells were treated with 10 mM sodium butyrate to induce NTCP transporter expression. Twenty-four hours later, media was aspirated, cells were washed with warm Hanks balanced salt solution (HBSS) containing sodium (+Na). Cells were incubated with increasing doses of Compound 1 (for example: 0, 10 nM, 100 nM, 1 μM, 10 μM), in the presence of tracer doses of 5 μm, 10 μM, or 25 μM [^3H]taurocholate at 37° C. for <10 minutes. The cells were processed for radioactivity. The apparent Ki and kinetic types of inhibition (competitive, uncompetitive, non-competitive, mixed) were determined by complementary Dixon/Cornish-Bowden plot analysis and Lineweaver-Burk plot analysis.

CCCCC1CN(c2ccccc2)c2cc(SC)c(O/C=C(\F)C(=O)O)cc2S(=O)(=O)N1C (stereo not drawn) [Compound 1, (Z)-3-((3-butyl-2-methyl-7-(methylthio)-1,1-dioxido-5-phenyl-2,3,4,5-tetrahydro-1,2,5-benzothiadiazepin-8-yl)oxy)-2-fluoroacrylic acid]
serum HBeAg compared to controls (HBV genotype C): lower | EC50 ([1]; HepG2, 18 h, Study #01, compound given 18 h post-infection): > 1 nM | EC50 ([1]; HepG2, Study #01, #02 and #03 merged, four parameter regression, read-out: EC50 from fitted curve of merged data): 4.9 nM | EC50 ([1]; HepG2, Study #01, compound given 18 h prior to infection, PHH, HBV DNA, read-out: EC50): 4 nM | EC50 ([1]; HepG2, Study #02, PHH, read-out: EC50): < 6.3 nM | EC50 ([1]; HepG2, Study #03, PHH, read-out: EC50): 11 nM | antiviral activity/potency when given 18 h post-infection ([1]; Study #01): lost | Max inhibition ([1]; Study #01, 18 h prior to infection): 97% | Max inhibition ([1]; Study #02): 88% | inhibition at the lowest concentration tested ([1]; Study #02, 6.25 nmol/L): 58% | Max inhibition ([1]; Study #03): 63% | inhibition at 1 µM (Human NTCP [2]): > 50% | cytotoxic effects (MTT) (NTCP-HepG2 cells): no cytotoxic effects | kinetic type of inhibition of transporter activity (Human NTCP [3]; Dixon/Cornish-Bowden and Lineweaver-Burk analysis, NTCP and ASBT): competitive inhibitor | Ki (Human NTCP [3]; [3H]taurocholate, CHO cells, read-out: inhibitory constant (Ki) for human NTCP): 15 nM
